According to patent US20100298141A1, “SUBSTITUTED PYRIDINE N-OXIDE HERBICIDES” (E. I. DU PONT DE NEMOURS AND COMPANY, priority 2007, published 2010):

Experiments:
Test in all cases: Test F preemergence test
Conditions in all cases: scale 0 to 100
kochia = type: in vivo, Kochia scoparia
Excerpt: (§1) Seeds of plant species selected from bermudagrass (Cynodon dactylon), Surinam grass (Brachiaria decumbens), large crabgrass (Digitaria sanguinalis), green foxtail (Setaria viridis), goosegrass (Eleusine indica), johnsongrass (Sorghum halepense), kochia (Kochia scoparia), pitted morningglory (Ipomoea lacunosa), purple nutsedge (Cyperus rotundus), common ragweed (Ambrosia elation), mustard (Brassica nigra), guineagrass (Panicum maximum), […] (Paspalum dilatatum), barnyardgrass (Echinochloa crus-galli), southern sandbur (Cenchrus echinatus), common sowthistle (Sonchus oleraceous), prickly […] spinosa), Italian ryegrass (Lolium multiflorum), common purslane (Portulaca oleracea), broadleaf signalgrass (Brachiaria platyphylla), common groundsel (Senecio vulgaris), common chickweed (Stellaria media), Virginia dayflower (Commelina virginica), annual bluegrass (Poa annua), naked crabgrass (Digitaria nuda), […] cochinchinensis), quackgrass (Elytrigia repens), Canada horseweed (Conyza canadensis), field bindweed (Convolvulus arvensis), […] (Bidens bipinnata), common mallow (Malva sylvestris), Russian thistle (Salsola kali), and sugarcane (Saccharum officinarum) were planted and treated preemergence with test chemicals formulated in a non-phytotoxic solvent mixture which included a surfactant. At a different time, sugarcane was treated with postemergence applications of some of the test chemicals formulated in the same manner. Plants were approximately 3- to 4-leaf stage for the postemergence treatments. Treated plants and controls were maintained in a greenhouse for 14 to 21 days, after which time all species were compared to controls and visually evaluated. […] A dash (-) response means no test result.

southern sandbur = type: in vivo, Cenchrus echinatus
Excerpt: as §1

purple nutsedge = type: in vivo, Cyperus rotundus
Excerpt: as §1

naked crabgrass = type: in vivo, Digitaria nuda
Excerpt: as §1

Surinam grass = type: in vivo, Brachiaria decumbens
Excerpt: as §1

johnsongrass = type: in vivo, Sorghum halepense
Excerpt: as §1

guineagrass = type: in vivo, Panicum maximum
Excerpt: as §1

prickly sida = type: in vivo, Sida spinosa
Excerpt: as §1

Italian ryegrass = type: in vivo, Lolium multiflorum
Excerpt: as §1

goosegrass = type: in vivo, Eleusine indica
Excerpt: as §1

large crabgrass = type: in vivo, Digitaria sanguinalis
Excerpt: as §1

quackgrass = type: in vivo, Elytrigia repens
Excerpt: as §1

pitted morningglory = type: in vivo, Ipomoea lacunosa
Excerpt: as §1

common groundsel = type: in vivo, Senecio vulgaris
Excerpt: as §1

common purslane = type: in vivo, Portulaca oleracea
Excerpt: as §1

bermudagrass = type: in vivo, Cynodon dactylon
Excerpt: as §1

`Cc1cc[n+]([O-])c([S+]([O-])Cc2c(C(F)(F)F)nn(C)c2OC(F)F)c1` (stereo not shown) [Compound 1] was tested, and the “Plant response rating, Kochia” value (kochia; 8 g ai/ha, preemergence) was 0, the “Kochia plant response rating” value (kochia; 62 g ai/ha, Preemergence) was 90 and the “Plant response rating, Kochia” value (kochia; Preemergence, 16 g ai/ha) was 0. For the same compound, the “Plant response rating, Kochia” value (kochia; Preemergence, 31 g ai/ha) was 35, the “Plant response rating, Sandbur” value (southern sandbur; 8 g ai/ha, preemergence) was 0 and the “Plant response rating, Sandbur” value (southern sandbur; 16 g ai/ha, preemergence) was 30. The “Sandbur plant response rating” value (southern sandbur; 62 g ai/ha, Preemergence) was 80, the “Plant response rating, Sandbur” value (southern sandbur; Preemergence, 31 g ai/ha) was 60 and the “Plant response rating, Purple Nutsedge” value (purple nutsedge; 8 g ai/ha, preemergence) was 0. The “Purple Nutsedge plant response rating” value (purple nutsedge; 62 g ai/ha, Preemergence) was 60, the “Plant response rating, Purple Nutsedge” value (purple nutsedge; Preemergence, 16 g ai/ha) was 0 and the “Plant response rating, Purple Nutsedge” value (purple nutsedge; Preemergence, 31 g ai/ha) was 60. The “Plant response rating, Crabgrass, Naked” value (naked crabgrass; 8 g ai/ha, preemergence) was 0, the “Crabgrass, Naked plant response rating” value (naked crabgrass; 62 g ai/ha, Preemergence) was 100 and the “Plant response rating, Crabgrass, Naked” value (naked crabgrass; Preemergence, 16 g ai/ha) was 15. The “Plant response rating, Crabgrass, Naked” value (naked crabgrass; Preemergence, 31 g ai/ha) was 90, the “Plant response rating, Surinam Grass” value (Surinam grass; 8 g ai/ha, preemergence) was 0 and the “Plant response rating, Surinam Grass” value (Surinam grass; 16 g ai/ha, preemergence) was 0. The “Surinam Grass plant response rating” value (Surinam grass; 62 g ai/ha, Preemergence) was 90, the “Plant response rating, Surinam Grass” value (Surinam grass; Preemergence, 31 g ai/ha) was 0 and the “Plant response rating, Johnsongrass” value (johnsongrass; 8 g ai/ha, preemergence) was 35. The “Johnsongrass plant response rating” value (johnsongrass; 62 g ai/ha, Preemergence) was 90, the “Plant response rating, Johnsongrass” value (johnsongrass; Preemergence, 16 g ai/ha) was 70 and the “Plant response rating, Johnsongrass” value (johnsongrass; Preemergence, 31 g ai/ha) was 90. The “Plant response rating, Guineagrass” value (guineagrass; 8 g ai/ha, preemergence) was 65, the “Guineagrass plant response rating” value (guineagrass; 62 g ai/ha, Preemergence) was 100 and the “Plant response rating, Guineagrass” value (guineagrass; Preemergence, 16 g ai/ha) was 80. The “Plant response rating, Guineagrass” value (guineagrass; Preemergence, 31 g ai/ha) was 80, the “Plant response rating, Prickly Sida” value (prickly sida; 8 g ai/ha, preemergence) was 0 and the “Prickly Sida plant response rating” value (prickly sida; 62 g ai/ha, Preemergence) was 80. The “Plant response rating, Prickly Sida” value (prickly sida; Preemergence, 16 g ai/ha) was 20, the “Plant response rating, Prickly Sida” value (prickly sida; Preemergence, 31 g ai/ha) was 60 and the “Plant response rating, Ryegrass, Italian” value (Italian ryegrass; 8 g ai/ha, preemergence) was 0. The “Ryegrass, Italian plant response rating” value (Italian ryegrass; 62 g ai/ha, Preemergence) was 90, the “Plant response rating, Ryegrass, Italian” value (Italian ryegrass; Preemergence, 16 g ai/ha) was 0 and the “Plant response rating, Ryegrass, Italian” value (Italian ryegrass; Preemergence, 31 g ai/ha) was 60. For the same compound, the “Plant response rating, Goosegrass” value (goosegrass; 8 g ai/ha, preemergence) was 25, the “Goosegrass plant response rating” value (goosegrass; 62 g ai/ha, Preemergence) was 95 and the “Plant response rating, Goosegrass” value (goosegrass; Preemergence, 16 g ai/ha) was 70. The “Plant response rating, Goosegrass” value (goosegrass; Preemergence, 31 g ai/ha) was 80, the “Plant response rating, Crabgrass, Large” value (large crabgrass; 8 g ai/ha, preemergence) was 0 and the “Crabgrass, Large plant response rating” value (large crabgrass; 62 g ai/ha, Preemergence) was 95. The “Plant response rating, Crabgrass, Large” value (large crabgrass; Preemergence, 16 g ai/ha) was 20, the “Plant response rating, Crabgrass, Large” value (large crabgrass; Preemergence, 31 g ai/ha) was 70 and the “Plant response rating, Quackgrass” value (quackgrass; 8 g ai/ha, preemergence) was 0. For the same compound, the “Quackgrass plant response rating” value (quackgrass; 62 g ai/ha, Preemergence) was 65, the “Plant response rating, Quackgrass” value (quackgrass; Preemergence, 16 g ai/ha) was 35 and the “Plant response rating, Quackgrass” value (quackgrass; Preemergence, 31 g ai/ha) was 50. For the same compound, the “Plant response rating, Morningglory” value (pitted morningglory; 8 g ai/ha, preemergence) was 0, the “Morningglory plant response rating” value (pitted morningglory; 62 g ai/ha, Preemergence) was 95 and the “Plant response rating, Morningglory” value (pitted morningglory; Preemergence, 16 g ai/ha) was 10. The “Plant response rating, Morningglory” value (pitted morningglory; Preemergence, 31 g ai/ha) was 75, the “Plant response rating, Groundsel” value (common groundsel; 8 g ai/ha, preemergence) was 0 and the “Groundsel plant response rating” value (common groundsel; 62 g ai/ha, Preemergence) was 35. The “Plant response rating, Groundsel” value (common groundsel; Preemergence, 16 g ai/ha) was 20, the “Plant response rating, Groundsel” value (common groundsel; Preemergence, 31 g ai/ha) was 35 and the “Plant response rating, Purslane” value (common purslane; 8 g ai/ha, preemergence) was 0. For the same compound, the “Purslane plant response rating” value (common purslane; 62 g ai/ha, Preemergence) was 80, the “Plant response rating, Purslane” value (common purslane; Preemergence, 16 g ai/ha) was 35 and the “Plant response rating, Purslane” value (common purslane; Preemergence, 31 g ai/ha) was 60. The “Plant response rating, Bermudagrass” value (bermudagrass; 8 g ai/ha, preemergence) was 0, the “Bermudagrass plant response rating” value (bermudagrass; 62 g ai/ha, Preemergence) was 80 and the “Plant response rating, Bermudagrass” value (bermudagrass; Preemergence, 16 g ai/ha) was 40. The “Plant response rating, Bermudagrass” value (bermudagrass; Preemergence, 31 g ai/ha) was 40.
